One data set addresses CYP2D6 (Homo sapiens, UniProt P10635). Kind of data set: CYP2D6-mediated metabolism: substrate disappearance in PM human liver microsome HHM-0116 supplemented with recombinant CYP2D6-expressing microsome. To be noted: microsomes, 1 μM substrate, 60 min incubation. The protocol: a) CYP2D6-mediated metabolism
The pH of the solution was 7.4. The incubation temperature was 37° C. At specific incubation times (0, 5, 10, 30, 60 minutes), an aliquot of 100 μl was withdrawn from the reaction mixture and mixed with 1 ml of ACN containing 5 ng/ml (2S, 3S)-3-(2-methoxybenzylamino)-2-diphenylmethyl-1-azabicyclo[2,2,2] octane as an internal standard. Protein was subsequently precipitated by centrifugation (1,800×g for 10 min). and the resulting supernatant was taken, evaporated and dissolved in 100 μl of 60% ACN. Concentrations of substrates and products in the sample solutions were analyzed with a Sciex API-III mass spectrometer linked with a Hewlett-Packard HP1090 HPLC system. A volume of 10 μl of the sample portion was injected to the HPLC system equipped with a Tosoh ODS-80Ts column manufactured by Tosoh (3.2×15 mm). Mobile phases comprised 80% acetonitrile(ACN) and 10 mM ammonium acetate and the elution was isocratic with a flow rate of 0.2 mlimin. The effluent from the HPLC column was introduced into the atmospheric pressure ionization source via an ion spray interface with splitting the effluent. The ion spray interface was operated at 5000 volt in a positive ion mode. Collision gas (argon) thickness (CGT), curtain gas (N2) and Neblizer gas (air) was 300×10^13 molecules/cm^2, 0.6 liter/minute and 40 PSI, respectively. The Q2 rod offset voltage (R2) was 0-6 V. The compounds were detected by multiple reacting monitoring (MRM) detection in the API-III mass spectrometer. The MS-MS were generally the combination of precursor and product. […] Concentrations of the remaining substrates in each sample solution (%-remaining) were plotted against the desired incubation times (FIG. 1(a), (c), (e), (g), (i), (k)).

The next data set deals with CYP2C19 (Homo sapiens, UniProt P33261). Kind of data set: S-mephenytoin hydroxylation activity. Type of data set: biochemical. To be noted: 100 μM S-(+)-Mephenytoin, pH 7.4, 37 °C. The protocol: As used herein, "S-mephenytoin hydroxylation activity" means the activity of 4'hydroxylation of S-mephenytoin as measured by HPLC-MS.
The reagent compositions of this invention, PM microsome (i.e., HHM0102), normal human liver microsomes mixture (i.e., HLM mix-A, and HLM mix-B, and (CYP2C19 0.1 mg/ml) were tested for hydroxymephenytoin generation activity which is a known property of microsome obtained from a normal metabolizer.
HHM-0102 microsomes (1.0 mg protein/ml) were mixed with a total of 0.3 mg protein/ml of CYP2C19 microsomes and the control microsomes with various ratios. […] Hydroxy mephenytoin which was generated in samples were analyzed by LC/MS/MS.

Sequence of CYP2D6 (P10635 whole entry): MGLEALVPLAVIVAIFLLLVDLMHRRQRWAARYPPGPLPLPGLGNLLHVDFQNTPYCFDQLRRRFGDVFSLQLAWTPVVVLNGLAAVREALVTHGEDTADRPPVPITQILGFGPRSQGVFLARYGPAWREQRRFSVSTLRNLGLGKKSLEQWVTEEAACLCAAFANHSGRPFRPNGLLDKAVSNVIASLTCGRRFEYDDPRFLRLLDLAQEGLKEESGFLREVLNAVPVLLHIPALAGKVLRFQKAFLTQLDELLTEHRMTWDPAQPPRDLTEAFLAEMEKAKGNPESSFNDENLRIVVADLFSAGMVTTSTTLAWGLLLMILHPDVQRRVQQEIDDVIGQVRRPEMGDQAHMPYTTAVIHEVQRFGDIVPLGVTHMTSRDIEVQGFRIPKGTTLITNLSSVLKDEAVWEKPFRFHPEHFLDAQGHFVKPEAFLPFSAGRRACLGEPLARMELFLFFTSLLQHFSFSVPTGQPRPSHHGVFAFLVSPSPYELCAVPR

For `CC(C)NCC(O)COc1cccc2ccccc12` (centres unmarked) [Propranolol, propranolol], the half-life at 1 µM on CYP2D6 (pH 7.4, T1/2, HHM0116 + 0 mg/ml 2D6 (control microsome)) is 301 min; on CYP2D6 (pH 7.4, T1/2, HHM0116 + 0.1 mg/ml recombinant CYP2D6 microsome) it was 70.2 min; on CYP2D6 (pH 7.4, T1/2, HHM0116 + 0.5 mg/ml recombinant CYP2D6 microsome), 15 min; at CYP2D6 (pH 7.4, T1/2, HHM0116 + 1.0 mg/ml recombinant CYP2D6 microsome), 5.4 min.

B1: CYP2C19 0.1 mg/ml: CYP2C19 microsomes at 0.1 mg/ml, tested alone (protein, UniProt P33261 1-490, looked up)
Cytochrome P450 2C19: MDPFVVLVLCLSCLLLLSIWRQSSGRGKLPPGPTPLPVIGNILQIDIKDVSKSLTNLSKIYGPVFTLYFGLERMVVLHGYEVVKEALIDLGEEFSGRGHFPLAERANRGFGIVFSNGKRWKEIRRFSLMTLRNFGMGKRSIEDRVQEEARCLVEELRKTKASPCDPTFILGCAPCNVICSIIFQKRFDYKDQQFLNLMEKLNENIRIVSTPWIQICNNFPTIIDYFPGTHNKLLKNLAFMESDILEKVKEHQESMDINNPRDFIDCFLIKMEKEKQNQQSEFTIENLVITAADLLGAGTETTSTTLRYALLLLLKHPEVTAKVQEEIERVIGRNRSPCMQDRGHMPYTDAVVHEVQRYIDLIPTSLPHAVTCDVKFRNYLIPKGTTILTSLTSVLHDNKEFPNPEMFDPRHFLDEGGNFKKSNYFMPFSAGKRICVGEGLARMELFLFLTFILQNFNLKSLIDPKDLDTTPVVNGFASVPPFYQLCFIPV
modifications: microsomes
notes: CYP2C19 microsomes at 0.1 mg/ml, tested alone
Take B1: in the data set with CYP2C19, the “S-mephenytoin hydroxylation Activity” value is on record as 18.110 pmol/min/mg.

The record behind these values is patent publication US5989844A, “Method for evaluating drug metabolism and reagent compositions therefor” (Pfizer Inc., priority 1997, dated 1999).
